According to patent US10544132B2, “Isoindolinone inhibitors of the MDM2-p53 interaction having anticancer activity” (ASTEX THERAPEUTICS LIMITED, priority 2015, dated 2020):

What was measured:
SN40R2 cells = assay: SN40R2 growth inhibition, sulphorhodamine B (SRB) method (Protocol A); settings: 72 h, read-out: SN40R2 IC50 (μM) (Protocol A)
MDM2-p53 interaction = MDM2-p53 interaction (Homo sapiens (Human), UniProt Q00987); assay: MDM2-p53 interaction 96-well plate binding assay (ELISA)
SJSA-1 cells = assay: SJSA-1 growth inhibition, sulphorhodamine B (SRB) method (Protocol A); settings: Homo sapiens, SJSA-1, 72 h, read-out: SJSA-1 IC50 (μM) (Protocol A)

Sequence of MDM2-p53 interaction (Q00987 whole entry): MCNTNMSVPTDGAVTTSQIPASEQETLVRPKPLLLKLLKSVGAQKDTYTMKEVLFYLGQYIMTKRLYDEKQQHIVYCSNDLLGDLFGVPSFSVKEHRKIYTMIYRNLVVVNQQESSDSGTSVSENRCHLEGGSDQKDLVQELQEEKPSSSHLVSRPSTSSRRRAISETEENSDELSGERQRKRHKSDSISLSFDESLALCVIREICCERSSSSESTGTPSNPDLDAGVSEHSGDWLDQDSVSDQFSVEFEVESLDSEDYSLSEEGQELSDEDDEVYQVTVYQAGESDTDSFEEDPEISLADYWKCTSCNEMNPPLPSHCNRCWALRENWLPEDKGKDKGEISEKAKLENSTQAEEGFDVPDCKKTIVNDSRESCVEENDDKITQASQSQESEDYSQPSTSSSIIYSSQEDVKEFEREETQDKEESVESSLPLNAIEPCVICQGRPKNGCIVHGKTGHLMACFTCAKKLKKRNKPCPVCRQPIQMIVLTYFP

IC50 (MDM2-p53 interaction) [µM]	IC50 (SJSA-1 cells) [µM]	SMILES	IC50 (SN40R2 cells) [µM]
		CC(C)(O)c1cc(F)c2c(c1)C(=O)N(Cc1ccc(Cl)cc1)[C@@]2(OCC1(CO)CC1)c1ccc(Cl)cc1 [Example 2, (3R)-3-(4-chlorophenyl)-2-[(4-chlorophenyl)methyl]-4-fluoro-3-{[1-(hydroxymethyl)cyclopropyl]methoxy}-6-(2-hydroxypropan-2-yl)-2,3-dihydro-1H-isoindol-1-one]	17
0.0019	0.078	[2H]C([2H])(O)C1(C([2H])([2H])O[C@]2(c3ccc(Cl)cc3)c3ccc(C(C)(C)O)cc3C(=O)N2Cc2ccc(Cl)cc2S(C)(=O)=O)CC1 [Example 36, (3R)-2-[(4-chloro-2-methanesulfonylphenyl)methyl]-3-(4-chlorophenyl)-3-({1-[hydroxy(^2H2)methyl]cyclopropyl}(^2H2)methoxy)-6-(2-hydroxypropan-2-yl)-2,3-dihydro-1H-isoindol-1-one]	17
